Reference: PMC10674535, “Development and Evaluation of a Self-Nanoemulsifying Drug Delivery System for Sinapic Acid with Improved Antiviral Efficacy against SARS-CoV-2” (Pharmaceutics, 2023)
In brackets after ≈: the same amount, converted by molar mass. Read-outs that look alike come from different tables or passages of the source.

Legend:
[1] = test system: SARS-CoV-2 (hCoV-19/Egypt/NRC-3/2020 isolate); test: microbe, parasite or virus in culture; type: cell-based; settings: Severe acute respiratory syndrome coronavirus 2, Vero C1008, 48 h, read-out: IC50, in vitro antiviral activity against SARS-CoV-2
[2] = Equilibrium (saturated) solubility of SA in oils, surfactants and cosurfactants (isothermal method); type: physicochemical; settings: room temperature; for solubility at 3 days: read-out: Saturated solubility of sinapic acid; for Saturated solubility of sinapic acid: 3 days, listed as SA
Description: The equilibrium solubility of SA was studied in various oils, surfactants, and cosurfactants. Oils of different saturation degrees (medium- or long-chain triglycerides) were utilized to create an SNE to test their solubilization and nano-emulsification ability. The oil with the highest ability to solubilize SA was chosen due to its significant impact on drug solubilization ability and absorption. The tested oils included Labrafil, Capryol-90, Labrafac, olive oil, anise oil, almond oil, soybean oil, and corn oil. The screened surfactants were hydrophilic non-ionic surfactants (Cremophor El, Tween 20, and Tween 80); they have high HLB values and low oral toxicity. Labrasol, Transcutol, PEG 400, and propylene glycol were the screened cosurfactants. An isothermal method previously reported in the literature was utilized for the solubility determination. In brief, 300 mg of SA was added to 1 mL of each component in screw-capped glass vials and mixed using a vortex mixer. The mixtures were then transferred to a thermodynamic water bath shaker (JULABO™, Julabo Labortechnik GMBH, Seelbach, Germany) for continuous shaking at a speed of 100 rpm at room temperature for three days, followed by centrifugation at 4000 rpm for 25 min. SA concentration was measured spectrophotometrically at 322 nm after the supernatant was diluted with methanol using a magnetic stirrer at 500 rpm for 2 min at room temperature. The results of this study provide important insights into the solubility of SA in various oils, surfactants, and cosurfactants, which is crucial for the formulation of SA in a self-nanoemulsifying dosage form.

[3] = biological target: T1, 3CL Protease, tagged (SARS-CoV-2) (Mpro) (Severe acute respiratory syndrome coronavirus 2, UniProt P0DTD1); test: Mpro enzyme assay (3CL Protease FRET assay kit); type: biochemical; settings: excitation 360 nm, emission 460 nm, read-out: IC50, in vitro Mpro inhibitory activity
T1 construct: 3CL Protease, tagged (SARS-CoV-2) Assay Kit; unspecified tag (printed only as 'tagged'); purchased BPS Bioscience, Inc. 79955-1
Description: The in vitro FRET assay was monitored at an emission wavelength of 460 nm with an excitation at 360 nm using a Flx800 fluorescence spectrophotometer (BioTek Instruments, Winooski, VT, USA).

in vitro = settings: African green monkey

`CCC(CC)COC(=O)[C@H](C)N[P@](=O)(OC[C@H]1O[C@@](C#N)(c2ccc3c(N)ncnn23)[C@H](O)[C@@H]1O)Oc1ccccc1` [remdesivir, reference compound] gave an IC50 ([1]; Vero E6 cells, MOI 0.5, viral RNA by real-time PCR after 2 days, n = 3) of 0.036 ± 0.002 µg/mL (≈ 5.97e-05 mM).

Work on `COc1cc(/C=C/C(=O)O)cc(OC)c1O` [Sinapic acid] yielded a solubility at 3 days ([2]; Capryol 90 (oil), oil or lipid, thermodynamic from solid, in Capryol 90 (oil)) of 22.5 mg/mL (≈ 100 mM), a solubility at 3 days ([2]; Cremophore El (surfactant), thermodynamic from solid, in Cremophore El (surfactant)) of 138 mg/mL (≈ 617 mM) and a solubility at 3 days ([2]; Labrafac (oil), oil or lipid, thermodynamic from solid, in Labrafac (oil)) of 14.3 mg/mL (≈ 63.9 mM). It also gave a solubility at 3 days ([2]; Labrafil (oil), in Labrafil (oil)) of 30 mg/mL (≈ 134 mM), a solubility at 3 days ([2]; Labrafil (oil), oil or lipid, thermodynamic from solid, in Labrafil (oil)) of 30 mg/mL (≈ 134 mM) and a solubility at 3 days ([2]; Labrasol, thermodynamic from solid, in Labrasol) of 60.4 mg/mL (≈ 269 mM). For the same compound, the solubility at 3 days ([2]; PEG 400 (co-surfactant), organic solvent or mixture, thermodynamic from solid, in PEG 400 (co-surfactant)) was 102 mg/mL (≈ 455 mM), the solubility at 3 days ([2]; Transcutol (co-surfactant), organic solvent or mixture, thermodynamic from solid, in Transcutol (co-surfactant)) was 193 mg/mL (≈ 860 mM) and the solubility at 3 days ([2]; Tween 20 (surfactant), thermodynamic from solid, in Tween 20 (surfactant)) was 123 mg/mL (≈ 550 mM). It also gave a solubility at 3 days ([2]; Tween 80 (surfactant), thermodynamic from solid, in Tween 80 (surfactant)) of 78.8 mg/mL (≈ 352 mM), a solubility at 3 days ([2]; almond oil, oil or lipid, thermodynamic from solid, in almond oil) of 1.71 mg/mL (≈ 7.63 mM) and a solubility at 3 days ([2]; anise oil, oil or lipid, thermodynamic from solid, in anise oil) of 5.02 mg/mL (≈ 22.4 mM). The solubility at 3 days ([2]; corn oil, oil or lipid, thermodynamic from solid, in corn oil) was 0.81 mg/mL (≈ 3.61 mM), the “Saturated solubility of sinapic acid” value ([2]; in Cremophore El (surfactant)) was 138 mg/mL and the “Saturated solubility of sinapic acid” value ([2]; in Labrasol) was 60 mg/mL. The “Saturated solubility of sinapic acid” value ([2]; in PEG 400 (co-surfactant)) was 102 mg/mL, the “Saturated solubility of sinapic acid” value ([2]; in Transcutol (co-surfactant)) was 192 mg/mL and the “Saturated solubility of sinapic acid” value ([2]; in Tween 80 (surfactant)) was 78 mg/mL. The “Saturated solubility of sinapic acid” value ([2]; in propylene glycol (co-surfactant)) was 58 mg/mL, the solubility at 3 days ([2]; olive oil, oil or lipid, thermodynamic from solid, in olive oil) was 7.11 mg/mL (≈ 31.7 mM) and the solubility at 3 days ([2]; propylene glycol (co-surfactant), organic solvent or mixture, thermodynamic from solid, in propylene glycol (co-surfactant)) was 58.4 mg/mL (≈ 260 mM). For the same compound, the solubility at 3 days ([2]; soybean oil, oil or lipid, thermodynamic from solid, in soybean oil) was 1.25 mg/mL (≈ 5.58 mM), the IC50 [3] was 6.74 ± 0.95 µM and the IC50 [1] was 2.53 ± 0.065 µg/mL (≈ 0.0113 mM). It also gave a CC50 (in vitro) of 196 ± 15.1 µg/mL (≈ 0.875 mM).
